Like-named read-outs stand apart in the source and are kept apart here.
Key:
[1] = tested on: human sperm; assay: Human sperm motility, transmembrane migration ratio (two-chamber membrane method); type: cell-based; settings: for inhibition at 25000 µM: beta-blocker 25 mM alone; for inhibition at 100 µM: beta-blocker 0.1 mM alone
Experimental: A simple method for measuring human sperm motility was developed as a modification to the method of C. […] The method used two chambers separated by a membrane and assessed the proportion of spermatozoa, from a small aliquot of semen, that moved across the membrane from the upper to the lower chamber.
The apparatus consisted of an upper and a lower chamber, the upper chamber being the plunger of a 2 ml disposable syringe. A 13 mm diameter Nuclepore membrane filter was bonded to the plunger using dichloromethane.
The mixture was pre-incubated at 37° C. for 10 minutes.
After pre-incubation the mixture was vortexed and 100 μl was pipetted onto the membrane of the upper chamber. The upper chamber was then inserted into the lower chamber, which contained 2 ml of phosphate buffered saline at 37° C.
The relative positions of the two chambers were fixed so that the fluid levels were equal.
The apparatus was then incubated for 90 mins. at 37° C. After this time, the upper chamber was removed and its contents were washed into 1.9 ml phosphate buffered saline containing 50 ul of 10% formalin solution by breaking the membrane. The spermatozoa in the lower chamber were also killed by adding 50 ul of the formalin to the lower chamber.
Finally, the number of spermatozoa in the upper and lower chambers were counted using a haemocytometer. The proportion of spermatozoa that traverse the membrane into the lower chamber is referred to as the transmembrane migration ratio.
Using the same technique, but a different sperm source the control of sperm motility achieved by nonoxynol-9, various beta-blockers and mixtures of nonoxynol-9 and a beta-blocker was measured. […] Again, mM represents millimolar.

[2] = cited from earlier work
[3] = Homo sapiens, Sperm, Table 2, beta-blocker 1.0 mM alone, read-out: % Inhibition of Sperm Motility
[4] = Homo sapiens, Sperm, Table 5, beta-blocker 1 mM alone, read-out: % Inhibition of Sperm Motility
[5] = Homo sapiens, Sperm, Table 3, beta-blocker 1.0 mM alone, read-out: % Inhibition of Sperm Motility

CC(C)NCC(O)COc1cccc2ccccc12 (racemic) [d,1-Propranolol]
inhibition at 1000 µM [1, 3]: 24.6% | inhibition at 1000 µM [1, 4]: 10.5%

C=CCc1ccccc1OC[C@@H](O)CNC(C)C [1-Alprenolol]
inhibition at 1000 µM [1, 3]: 17% | inhibition at 1000 µM [1, 5]: 26.9%

CCCC(=O)Nc1ccc(OCC(O)CNC(C)C)c(C(C)=O)c1 (stereo not drawn) [Acebutolol]
inhibition at 25000 µM ([1]; Homo sapiens, Sperm, Table 4): 11.3%

CCc1cccc2cc(C(O)CNC(C)(C)C)oc12 (stereo not drawn) [Bufuralol]
inhibition at 1000 µM ([1]; Homo sapiens, Sperm, read-out: % Inhibition of Sperm Motility, Table 2, beta-blocker 1.0 mM alone): 28.5% | inhibition at 1000 µM ([1]; Homo sapiens, Sperm, read-out: % Inhibition of Sperm Motility, Table 3, beta-blocker 1.0 mM alone): 22% | apparent octanol/buffer (pH 7.4) partition coefficient [2]: greater than 1

COCCc1ccc(OCC(O)CNC(C)C)cc1 (stereo not drawn) [Metoprolol]
inhibition at 10000 µM ([1]; Homo sapiens, Sperm, Table 2, beta-blocker 10.0 mM alone): 7.1% | inhibition at 10000 µM ([1]; Homo sapiens, Sperm, Table 3, beta-blocker 10 mM alone): 0%

C=CCOc1ccccc1OCC(O)CNC(C)C (stereo not drawn) [Oxprenolol]
inhibition at 5000 µM ([1]; Homo sapiens, Sperm, Table 2, beta-blocker 5.0 mM alone): 3.4% | inhibition at 5000 µM ([1]; Homo sapiens, Sperm, Table 3, beta-blocker 5 mM alone): 0%

CC(C)(C)NC[C@H](O)COc1ccccc1C1CCCC1 [Penbutolol]
inhibition at 100 µM ([1]; Homo sapiens, Sperm, Table 2): 6.2% | inhibition at 100 µM ([1]; Homo sapiens, Sperm, Table 3): 0% | inhibition at 100 µM ([1]; Homo sapiens, Sperm, Table 5): 17.8% | apparent octanol/buffer (pH 7.4) partition coefficient [2]: greater than 1

CC(C)NCC(O)COc1cccc2[nH]ccc12 (stereo not drawn) [Pindolol]
inhibition at 25000 µM ([1]; Homo sapiens, Sperm, Table 3): 10.2%

CC(C)(C)NC[C@H](O)COc1nsnc1N1CCOCC1 [Timolol]
inhibition at 25000 µM ([1]; Homo sapiens, Sperm, Table 4): 4.9%

C=CCc1ccccc1OCC(O)CNC(C)C (stereo not drawn) [alprenolol]
apparent octanol/buffer (pH 7.4) partition coefficient [2]: greater than 1

CC(C)NC[C@@H](O)COc1cccc2ccccc12 [d-Propranolol]
inhibition at 1000 µM ([1]; Homo sapiens, Sperm, Table 1, d-Propranolol 1.0 mM alone, % of control, read-out: % Inhibition of Sperm Motility): 28% | inhibition at 2500 µM ([1]; Homo sapiens, Sperm, Table 1, d-Propranolol 2.5 mM alone, % of control): 76.5% | inhibition at 1000 µM [1, 3]: 3.6% | inhibition at 1000 µM [1, 5]: 4% | inhibition at 1000 µM [1, 4]: 0.2%

Nonoxynol-9
% Inhibition of Sperm Motility ([1]; Table 1, Nonoxynol-9 0.16 mM alone, % of control): 12.5% | % Inhibition of Sperm Motility ([1]; Table 1, Nonoxynol-9 1.6 mM alone, % of control): 97.7% | % Inhibition of Sperm Motility ([1]; Table 2, different sperm source, Nonoxynol-9 at its IC50, alone): 50% | % Inhibition of Sperm Motility ([1]; Table 3, another sperm source, Nonoxynol-9 at its IC50, alone): 50.0% | % Inhibition of Sperm Motility ([1]; Table 4, another sperm source, Nonoxynol-9 at its IC50, alone): 50.0%

Octoxynol
% Inhibition of Sperm Motility ([1]; Table 5, another sperm source, Octoxynol at its IC50, alone): 50.0%
